Where two headings read alike, the source gives them in different places.
Experiments:
CHO cells [1] = format: cell-based; details: for intracellular Ca2+ levels, maximal response (ΔF/F): peptide 1 μM, vs. HBSS, at least five wells
Protocol: CHO cells were plated at 20.000 cells/well into black walled, clear bottom 96-well plate (Corning, Germany) and cultured one day up to 80–90% of confluence. […] TLQP-21, TLQP-62, TLQP-8, HHPD-41, HFHH-10, and LRPS-21 were diluted in HBSS solution and injected into the wells by an automated injector system. […] Depletion of Ca^2+ from the ER leads to Ca^2+ entry from outside the cell by activation of Store-Operated Channels (SOCs).

[2] = test system: TLQP-21 binding sites on CHO cell membranes; assay: TLQP-21 binding assay with [125I]-YATL-23 on crude CHO cell membranes; details: competition with 1 nM [125I]-YATL-23, competitor 10 pM to 0.1 μM
Protocol: Binding of TLQP-21 to crude membranes (30,000 × g pellet) obtained from CHO cells was carried out using [^125I]-YATL-23 as ligand. YATL-23 was radioiodinated (specific activity, 2000 Ci/mmol) using the lactoperoxidase method ([Muccioli et al., 1998]; [Muccioli et al., 2001]) by Perkin Elmer (Milan, Italy) and purified by reverse phase high-performance liquid chromatography. For the single point binding assay, cell membranes (corresponding to 100 μg membrane protein) were incubated in triplicate at 23°C, unless otherwise noted, for 4 h under constant shaking with 0.5 nM [^125I]-YATL-23 in a final volume of 0.5 ml assay buffer (50 mM Tris, 2.5 mM EGTA, 0.002% bacitracin, 0.1% bovine serum albumin, titrated to a final pH of 7.4 with HCl). Non-specific binding was measured in parallel incubations with 1 μM unlabelled YATL-23 to displace the radioligand. Similar results were obtained using TLQP-21 to displace the radioligand. The binding reaction was terminated by the addition of ice-cold assay buffer, followed by rapid filtration through Whatman GF/B filters as previously reported ([Muccioli et al., 1998]) and the radioactivity bound to membranes was measured by a Packard auto-γ-counter. Specific binding-values were calculated as the difference obtained subtracting non-specific from total binding. Specific binding was expressed as a percentage of the total radioactivity added. […]

CHO cells [3] = details: ref Cassina et al., 2013; cited from earlier work
Text: Among several bioactive peptides derived from VGF, TLQP-21 (VGF^556-576) is a 21 amino acid peptide which has been immunopurified from brain tissues ([Bartolomucci et al., 2006]). Despite many efforts to characterize the physiological effects of TLQP-21, little is known about its molecular targets. Nonetheless, adipocytes express a high affinity binding site for TLQP-21 and in these cells TLQP-21 stimulates a pro-lipolytic effect ([Possenti et al., 2012]).

[4] = inhibitor 10 μM, 20 min pretreatment, then 1 μM TLQP-21

C/C=C(/C)C(=O)O[C@H]1C(C)=C2[C@H]([C@@H]1OC(=O)CCCCCCC)[C@@](C)(OC(C)=O)C[C@H](OC(=O)CCC)[C@@]1(O)[C@H]2OC(=O)[C@@]1(C)O [TG, thapsigargin]
reduction of TLQP-21-mediated increase of intracellular Ca2+ (CHO cells [1]; inhibitor 2 μM, 20 min preincubation, then 1 μM TLQP-21): 56%

TLQPPASSRRRHFHHALPPARHHPDLEAQARRAQEEADAEERRLQEQEELENYIEHVLLHRP [TLQP-62]
intracellular Ca2+ levels, maximal response (ΔF/F) (CHO cells [1]; repeated at least three times): failed to stimulate any significant increase

COc1ccc2c(c1)CC[C@@H]1[C@@H]2CC[C@]2(C)[C@@H](NCCCCCCN3C(=O)C=CC3=O)CC[C@@H]12 [U73122]
reduction of TLQP-21 stimulation of intracellular Ca2+ mobilization (CHO cells [1]; inhibitor 10 μM, 10 min preincubation, then 1 μM TLQP-21): about 82%

Cc1nnsc1C(=O)Nc1ccc(-n2nc(C(F)(F)F)cc2C(F)(F)F)cc1 [YM-58483]
decrement in TLQP-21-mediated intracellular Ca2+ mobilization (CHO cells [1]; [4]): ~27%

HHPDLEAQARRAQEEADAEERRLQEQEELENYIEHVLLHRP [HHPD-41, VGF-derived peptide from processing of TLQP-62]
intracellular Ca2+ levels, maximal response (ΔF/F) (CHO cells [1]; repeated at least three times): ineffective

NCCOB(c1ccccc1)c1ccccc1 [2-APB, 2-Aminoethyl diphenylborinate]
decrement of TLQP-21 intracellular Ca2+ mobilization (CHO cells [1]; inhibitor 75 μM, 15 min preincubation, then 1 μM TLQP-21): about 79%

CC(C)C[C@H](NC(=O)[C@@H](N)[C@@H](C)O)C(=O)N[C@@H](CCC(N)=O)C(=O)N1CCC[C@H]1C(=O)N1CCC[C@H]1C(=O)N[C@@H](C)C(=O)N[C@@H](CO)C(=O)N[C@@H](CO)C(=O)N[C@@H](CCCNC(=N)N)C(=O)N[C@@H](CCCNC(=N)N)C(=O)N[C@@H](CCCNC(=N)N)C(=O)N[C@@H](Cc1c[nH]cn1)C(=O)N[C@@H](Cc1ccccc1)C(=O)N[C@@H](Cc1c[nH]cn1)C(=O)N[C@@H](Cc1c[nH]cn1)C(=O)N[C@@H](C)C(=O)N[C@@H](CC(C)C)C(=O)N1CCC[C@H]1C(=O)N1CCC[C@H]1C(=O)N[C@@H](C)C(=O)N[C@@H](CCCNC(=N)N)C(=O)O [TLQP-21]
EC50 (CHO cells [1]; CHO cells, stated as 1 μM being close to the EC50, read-out: EC50 of intracellular Ca2+ mobilization): ~1000 nM

COc1ccc(CCCOC(Cn2ccnc2)c2ccc(OC)cc2)cc1 (stereo not shown) [SKF-96365]
decrement in TLQP-21-mediated intracellular Ca2+ mobilization (CHO cells [1]; [4]): about 36%

HFHHALPPAR [HFHH-10, 10 amino acids at the C-terminal of TLQP-21]
intracellular Ca2+ levels, maximal response (ΔF/F) (CHO cells [1]; repeated at least three times): effectively stimulated

TLQPPASS [TLQP-8, 8 amino acids at the N-terminal of TLQP-21]
intracellular Ca2+ levels, maximal response (ΔF/F) (CHO cells [1]; repeated at least three times): slight and non-significant increase

Cyclosporine A [CsA]
basal levels of intracellular Ca2+ (CHO cells [1]; 2 μM, before TLQP-21): did not modify
effect on TLQP-21 Ca2+ stimulation (CHO cells [1]; inhibitor 2 μM, 15 min preincubation, then 1 μM TLQP-21): did not affect

LRPSHTRPAHQSFARP LHRPA [LRPS-21, scrambled control peptide with the same amino acid residues as TLQP-21]
intracellular Ca2+ levels, maximal response (CHO cells [1]; peptide 1 nM–10 μM, TLQP-21 significant (P < 0.05) at 0.1 μM–10 μM, at least six wells, repeated at least three times): did not stimulate
inhibition of [125I]-YATL-23 binding to CHO membranes [2]: not inhibited
stimulation of intracellular Ca2+ in CHO cells (CHO cells [3]): did not stimulate

O=C(O)CN(CCOCCOCCN(CC(=O)O)CC(=O)O)CC(=O)O [EGTA]
decrement in TLQP-21-mediated intracellular Ca2+ mobilization (CHO cells [1]; chelator 1 mM, 30 min pretreatment, then 1 μM TLQP-21): ~45%
